Bridge positions count the residues as written; N and C are the ends. Square brackets hold non-standard residues; d marks the D form. Peptide text beside a SMILES is read from it. Phe(4-NO2) = N[C@@H](Cc1ccc([N+](=O)[O-])cc1)C(=O)O; Phe(4-CH2NHiPr) = CC(C)NCc1ccc(C[C@H](N)C(=O)O)cc1; Phe(4-CH2NH2) = NCc1ccc(C[C@H](N)C(=O)O)cc1; d2Nal = N[C@H](Cc1ccc2ccccc2c1)C(=O)O
What was measured:
[1] = molecular target: Somatostatin receptor type 1 (Homo sapiens, UniProt P30872); experiment: Tested for ability to bind to 20 uM thick cryostat sections of a membrane pellet of cells transfected with human cloned somatostatin (sst) receptor subtype 1.
[2] = molecular target: Somatostatin receptor type 4 (Homo sapiens, UniProt P31391); experiment: Tested for ability to bind to 20 uM thick cryostat sections of a membrane pellet of cells transfected with human cloned somatostatin (sst) receptor subtype 4.
[3] = molecular target: Somatostatin receptor type 5 (Homo sapiens, UniProt P35346); experiment: Tested for ability to bind to 20 uM thick cryostat sections of a membrane pellet of cells transfected with human cloned somatostatin (sst) receptor subtype 5.
[4] = molecular target: Somatostatin receptor type 2 (Homo sapiens, UniProt P30874); experiment: Tested for ability to bind to 20 uM thick cryostat sections of a membrane pellet of cells transfected with human cloned somatostatin (sst) receptor subtype 2.
[5] = molecular target: Somatostatin receptor type 3 (Homo sapiens, UniProt P32745); experiment: Tested for ability to bind to 20 uM thick cryostat sections of a membrane pellet of cells transfected with human cloned somatostatin (sst) receptor subtype 3.
Chain of Somatostatin receptor type 3 (P32745 whole entry): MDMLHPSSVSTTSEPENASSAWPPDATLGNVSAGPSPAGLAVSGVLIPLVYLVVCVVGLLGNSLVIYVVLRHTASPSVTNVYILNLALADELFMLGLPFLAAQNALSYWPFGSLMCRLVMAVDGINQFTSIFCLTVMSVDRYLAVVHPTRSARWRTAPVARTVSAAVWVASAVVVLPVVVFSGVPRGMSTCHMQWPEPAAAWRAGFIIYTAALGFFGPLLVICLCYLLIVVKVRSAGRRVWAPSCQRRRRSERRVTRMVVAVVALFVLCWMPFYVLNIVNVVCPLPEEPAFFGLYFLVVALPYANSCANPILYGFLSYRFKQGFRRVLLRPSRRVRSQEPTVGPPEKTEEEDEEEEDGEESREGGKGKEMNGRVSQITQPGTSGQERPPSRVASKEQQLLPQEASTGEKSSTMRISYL

Chain of Somatostatin receptor type 1 (P30872 whole entry): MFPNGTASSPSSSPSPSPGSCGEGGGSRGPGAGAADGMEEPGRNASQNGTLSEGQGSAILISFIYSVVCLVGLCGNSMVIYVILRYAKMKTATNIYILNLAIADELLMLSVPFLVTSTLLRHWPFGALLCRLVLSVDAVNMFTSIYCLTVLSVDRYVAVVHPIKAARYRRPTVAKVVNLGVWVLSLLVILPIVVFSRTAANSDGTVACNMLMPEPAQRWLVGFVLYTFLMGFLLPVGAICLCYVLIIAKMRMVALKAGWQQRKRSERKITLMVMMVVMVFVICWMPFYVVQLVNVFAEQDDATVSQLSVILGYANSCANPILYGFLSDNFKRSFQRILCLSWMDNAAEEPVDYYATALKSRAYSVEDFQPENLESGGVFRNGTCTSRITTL
Chain of Somatostatin receptor type 5 (P35346 whole entry): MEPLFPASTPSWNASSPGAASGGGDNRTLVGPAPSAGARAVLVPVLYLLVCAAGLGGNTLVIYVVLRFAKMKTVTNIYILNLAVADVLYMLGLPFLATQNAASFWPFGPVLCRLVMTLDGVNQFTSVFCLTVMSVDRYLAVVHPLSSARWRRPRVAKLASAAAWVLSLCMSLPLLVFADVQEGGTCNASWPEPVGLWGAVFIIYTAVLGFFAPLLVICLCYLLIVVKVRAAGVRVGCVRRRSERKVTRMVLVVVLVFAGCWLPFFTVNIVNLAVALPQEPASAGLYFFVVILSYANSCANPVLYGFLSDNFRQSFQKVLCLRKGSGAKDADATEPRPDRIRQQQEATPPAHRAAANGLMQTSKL
Chain of Somatostatin receptor type 4 (P31391 whole entry): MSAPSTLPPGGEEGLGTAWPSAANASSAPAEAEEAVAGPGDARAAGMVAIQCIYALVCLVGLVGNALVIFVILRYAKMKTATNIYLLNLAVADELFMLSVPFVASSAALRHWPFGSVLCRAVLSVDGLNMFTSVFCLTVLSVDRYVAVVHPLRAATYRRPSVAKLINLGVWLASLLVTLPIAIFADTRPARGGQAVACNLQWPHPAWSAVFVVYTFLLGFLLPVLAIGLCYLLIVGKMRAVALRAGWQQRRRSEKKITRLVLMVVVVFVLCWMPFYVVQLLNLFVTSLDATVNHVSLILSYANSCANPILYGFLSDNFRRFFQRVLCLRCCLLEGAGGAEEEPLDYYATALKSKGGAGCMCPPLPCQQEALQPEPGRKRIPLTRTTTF
Chain of Somatostatin receptor type 2 (P30874 whole entry): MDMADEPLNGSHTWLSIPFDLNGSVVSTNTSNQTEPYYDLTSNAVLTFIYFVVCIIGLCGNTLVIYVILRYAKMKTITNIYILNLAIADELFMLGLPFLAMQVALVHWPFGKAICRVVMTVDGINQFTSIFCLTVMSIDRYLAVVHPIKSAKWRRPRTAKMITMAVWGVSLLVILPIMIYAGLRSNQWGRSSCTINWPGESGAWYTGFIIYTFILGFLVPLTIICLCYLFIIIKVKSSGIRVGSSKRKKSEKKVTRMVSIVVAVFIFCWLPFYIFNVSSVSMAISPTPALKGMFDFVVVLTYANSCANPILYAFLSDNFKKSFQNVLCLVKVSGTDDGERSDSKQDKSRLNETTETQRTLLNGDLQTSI

Row | SMILES | IC50 [1] [nM] | IC50 [2] [nM] | IC50 [3] [nM] | IC50 [4] [nM] | IC50 [5] [nM]
1 | CC(C)NCc1ccc(C[C@@H]2NC(=O)[C@@H](Cc3cn(Cc4ccccc4)cn3)NC(=O)[C@H](Cc3ccccc3)NC(=O)[C@H](Cc3ccccc3)NC(=O)[C@H](CCCCN)NC(=O)[C@@H](N)CSSC[C@@H](C(=O)O)NC(=O)[C@H](CO)NC(=O)[C@H]([C@@H](C)O)NC(=O)[C@H](Cc3ccccc3)NC(=O)[C@H]([C@@H](C)O)NC2=O)cc1 | > 1000 | > 10000 | > 10000 | > 1000 | > 1000
2 | CC(C)NCc1ccc(C[C@@H]2NC(=O)[C@@H](Cc3c[nH]c4ccccc34)NC(=O)[C@H](Cc3ccc(O)cc3)NC(=O)[C@H](Cc3ccccc3)NC(=O)[C@H](CCCCN)NC(=O)[C@@H](N)CSSC[C@@H](C(=O)O)NC(=O)[C@H](CO)NC(=O)[C@H]([C@@H](C)O)NC(=O)[C@H](Cc3ccccc3)NC(=O)[C@H]([C@@H](C)O)NC2=O)cc1 | 530 | > 10000 | > 1000 | > 10000 | > 10000
3 | C[C@@H](O)[C@@H]1NC(=O)[C@H](Cc2ccccc2)NC(=O)[C@H]([C@@H](C)O)NC(=O)[C@H](Cc2ccc(Nc3nnc(N)[nH]3)cc2)NC(=O)[C@@H](Cc2c[nH]c3ccccc23)NC(=O)[C@H](Cc2ccccc2)NC(=O)[C@H](Cc2ccccc2)NC(=O)[C@H](CCCCN)NC(=O)[C@@H](N)CSSC[C@@H](C(=O)O)NC(=O)[C@H](CO)NC1=O | > 1000 | > 10000 | > 10000 | > 10000 | > 10000
4 | CC(C)NCc1ccc(C[C@@H]2NC(=O)[C@@H](Cc3ccc4ccccc4c3)NC(=O)[C@H](Cc3ccccc3)NC(=O)[C@H](Cc3ccccc3)NC(=O)[C@H](CCCCN)NC(=O)[C@@H](NC(=O)CCc3ccc(O)cc3)CSSC[C@@H](C(=O)O)NC(=O)[C@H](CO)NC(=O)[C@H]([C@@H](C)O)NC(=O)[C@H](Cc3ccccc3)NC(=O)[C@H]([C@@H](C)O)NC2=O)cc1 | 563 | > 10000 | > 10000 | > 1000 | > 1000
5 | CC(C)NCc1ccc(C[C@@H]2NC(=O)[C@@H](Cc3ccc4ccccc4c3)NC(=O)[C@H](Cc3ccccc3)NC(=O)[C@H](Cc3ccccc3)NC(=O)[C@H](CCCCN)NC(=O)[C@H](NC(=O)CCc3ccc(O)cc3)CSSC[C@H](C(=O)O)NC(=O)[C@H](CO)NC(=O)[C@H]([C@@H](C)O)NC(=O)[C@H](Cc3ccccc3)NC(=O)[C@H]([C@@H](C)O)NC2=O)cc1 | > 1000 | > 1000 | > 1000 | > 1000 | > 1000

These reach a lower IC50 [1]. Values come first.

Row | IC50 [1] [nM] | IC50 [2] [nM] | IC50 [3] [nM] | IC50 [4] [nM] | IC50 [5] [nM] | SMILES
6 | 443 | > 10000 | > 10000 | > 1000 | > 10000 | CC(C)NCc1ccc(C[C@@H]2NC(=O)[C@@H](Cc3c[nH]c4ccccc34)NC(=O)[C@H](Cc3ccccc3)NC(=O)[C@H](Cc3ccccc3)NC(=O)[C@H](CC(N)=O)NC(=O)[C@H](CCCCN)NC(=O)[C@@H](N)CSSC[C@@H](C(=O)O)NC(=O)[C@H](CO)NC(=O)[C@H]([C@@H](C)O)NC(=O)[C@H](Cc3ccccc3)NC(=O)[C@H]([C@@H](C)O)NC2=O)cc1 (H-CKNFF[dW][Phe(4-CH2NHiPr)]TFTSC-OH; disulfide 1-12)
7 | 309 | 267 | 190 | 213 | 273 | C[C@@H](O)[C@@H]1NC(=O)[C@H](Cc2ccccc2)NC(=O)[C@H]([C@@H](C)O)NC(=O)[C@H](Cc2ccc(CN)cc2)NC(=O)[C@@H](Cc2c[nH]c3ccccc23)NC(=O)[C@H](Cc2ccccc2)NC(=O)[C@H](Cc2ccccc2)NC(=O)[C@H](CCCCN)NC(=O)[C@@H](N)CSSC[C@@H](C(=O)O)NC(=O)[C@H](CO)NC1=O (H-CKFF[dW][Phe(4-CH2NH2)]TFTSC-OH; disulfide 1-11)
8 | 187 | > 1000 | > 1000 | > 10000 | > 1000 | CC(C)NCc1ccc(C[C@@H]2NC(=O)[C@@H](Cc3c[nH]c4ccccc34)NC(=O)[C@H](Cc3ccccc3)NC(=O)[C@H](Cc3ccccc3)NC(=O)[C@H](CCCCN)NC(=O)[C@@H](N)CSSC[C@@H](C(=O)O)NC(=O)[C@@H](CO)NC(=O)[C@H]([C@@H](C)O)NC(=O)[C@H](Cc3ccccc3)NC(=O)[C@H]([C@@H](C)O)NC2=O)cc1 (H-CKFF[dW][Phe(4-CH2NHiPr)]TFT[dS]C-OH; disulfide 1-11)
9 | 103 | > 1000 | > 10000 | > 1000 | > 1000 | CC(C)NCc1ccc(C[C@@H]2NC(=O)[C@@H](Cc3ccc4ccccc4c3)NC(=O)[C@H](Cc3ccccc3)NC(=O)[C@H](Cc3ccccc3)NC(=O)[C@H](CCCCN)NC(=O)[C@@H](N)CSSC[C@@H](C(=O)O)NC(=O)[C@H](CO)NC(=O)[C@H]([C@@H](C)O)NC(=O)[C@H](Cc3ccccc3)NC(=O)[C@H]([C@@H](C)O)NC2=O)cc1 (H-CKFF[d2Nal][Phe(4-CH2NHiPr)]TFTSC-OH; disulfide 1-11)
10 | 101 | > 10000 | > 1000 | 556 | 280 | CNCc1ccc(C[C@@H]2NC(=O)[C@@H](Cc3ccc4ccccc4c3)NC(=O)[C@H](Cc3ccccc3)NC(=O)[C@H](Cc3ccccc3)NC(=O)[C@H](CCCCN)NC(=O)[C@@H](N)CSSC[C@@H](C(=O)O)NC(=O)[C@H](CO)NC(=O)[C@H]([C@@H](C)O)NC(=O)[C@H](Cc3ccccc3)NC(=O)[C@H]([C@@H](C)O)NC2=O)cc1
11 | 35 | > 1000 | > 1000 | > 1000 | 975 | CC(C)NCc1ccc(C[C@@H]2NC(=O)[C@@H](Cc3ccc4ccccc4c3)NC(=O)[C@H](Cc3ccc([N+](=O)[O-])cc3)NC(=O)[C@H](Cc3ccccc3)NC(=O)[C@H](CCCCN)NC(=O)[C@@H](N)CSSC[C@@H](C(=O)O)NC(=O)[C@H](CO)NC(=O)[C@H]([C@@H](C)O)NC(=O)[C@H](Cc3ccccc3)NC(=O)[C@H]([C@@H](C)O)NC2=O)cc1 (H-CKF[Phe(4-NO2)][d2Nal][Phe(4-CH2NHiPr)]TFTSC-OH; disulfide 1-11)
12 | 5.4 | 3.5 | 16.7 | 0.33 | 4.3 | C[C@@H](O)[C@@H]1NC(=O)[C@H](Cc2ccccc2)NC(=O)[C@H]([C@@H](C)O)NC(=O)[C@H](CCCCN)NC(=O)[C@@H](Cc2c[nH]c3ccccc23)NC(=O)[C@H](Cc2ccccc2)NC(=O)[C@H](Cc2ccccc2)NC(=O)[C@H](CC(N)=O)NC(=O)[C@H](CCCCN)NC(=O)[C@@H](N)CSSC[C@@H](C(=O)O)NC(=O)[C@H](CO)NC1=O

Source: ChEMBL document CHEMBL1134520, “Potent somatostatin undecapeptide agonists selective for somatostatin receptor 1 (sst1)” (J Med Chem, 2001)
